The text below walks through data of ChEMBL document CHEMBL1201862, “PubChem BioAssay data set” (2004).

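Method: 48-hour compound exposure of cells in 96-well plates, five concentrations, linear interpolation of endpoints. The concentration for 50% growth inhibition is given as GI50.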 Calls of active or inactive are those of the source. Rule as the data show it: active = GI50 up to about 1.1 µM and inactive = higher.

Common to all, as to experiment: growth of human tumour cells (NCI), 48 h
For assay [1], the system named is NCI-H226.
For assay [2], the system named is LXFL 529.
For assay [3], the system named is SR.
Assay [4] has as its system NCI-H522.
Assay [5] relates to OVCAR-5.
The test system of assay [6] is SK-MEL-2.
For assay [7], the system named is 786-0.
For assay [8], the system named is SNB-75.
Assay [9] has as its system A498.
Assay [10] relates to CAKI-1.
For assay [11], the system named is MDA-MB-231.
Assay [12] deals with T47D.
Assay [13] relates to MDA-N.
Assay [14] relates to MCF7.
The subject of assay [15] is NCI/ADR-RES.
Assay [16] concerns MDA-MB-435.
Assay [17] has as its system BT-549.
Assay [18] relates to Hs-578T.
For assay [19], the system named is PC-3.
In assay [20] the test system is DU-145.

Take `CC1(O)CCC2(C#N)CCC1C2O` (stereo not drawn): the GI50 in assay [1] was > 100 µM (inactive); in assay [2], > 100 µM (inactive); in [3], 20.3 µM (inactive); in assay [4], 50.6 µM (inactive); in assay [5], > 100 µM (inactive); in assay [6], > 100 µM (inactive). Further, the GI50 in assay [7], in assay [8], in [9] and in [10] was > 100 µM (inactive) throughout.

On to `O=S(=O)(N/C(=N\O)Nc1ccc(Cl)cc1)c1ccccc1`, for which the GI50 in [1] is 33.7 µM (inactive); in assay [11] it was 29.5 µM (inactive); in assay [3], 1.15 µM (inactive); in assay [4], 1.03 µM (active); in [5] it was 14.5 µM (inactive); in assay [12], 2.74 µM (inactive). Also, the GI50 is 11.6 µM (inactive) in [6]; 3.9 µM (inactive) in [13]; 12.6 µM (inactive) in assay [14]; 1.87 µM (inactive) in assay [7]; 12 µM (inactive) in [15]; 1.71 µM (inactive) in assay [8]. Besides, the GI50 is 6.67 µM (inactive) in [9]; 9.23 µM (inactive) in assay [16]; 12.6 µM (inactive) in assay [17]; 2.07 µM (inactive) in [10]; 6.46 µM (inactive) in assay [18]; 13.3 µM (inactive) in assay [19]. In assay [20], the GI50 was 18.5 µM (inactive).

For the compound `COCOc1ccc(Cn2c(=O)n(C)c(=O)c3c2ncn3C)cc1[N+](=O)[O-]`, the GI50 in assay [1] was 46.3 µM (inactive); in [2] it was 79.8 µM (inactive); in assay [3], > 100 µM (inactive); in [4], > 100 µM (inactive); in [7], > 100 µM (inactive); in assay [8], 59.6 µM (inactive).

For the compound `CC1(C)CCC[C@]2(C)[C@@H](C=O)C(C=O)=CC[C@@H]12` [POLYGODIAL], the GI50 in [1] was 20 µM (inactive); in [11], 10.6 µM (inactive); in assay [3] it was 18.2 µM (inactive); in [4] it was 15.8 µM (inactive); in assay [5], 16.4 µM (inactive); in assay [12], 19.8 µM (inactive). Moreover, the GI50 in [6] is 18.1 µM (inactive); in assay [13] it was 13.6 µM (inactive); in assay [14], 14.7 µM (inactive); in assay [7], 37 µM (inactive); in assay [15], 18.6 µM (inactive); in assay [9] it was 40.9 µM (inactive). For the same compound, the GI50 in assay [16] is 36.6 µM (inactive); in assay [17], 25.9 µM (inactive); in [10] it was 6.82 µM (inactive); in assay [18], 27.9 µM (inactive); in assay [19], 27.7 µM (inactive); in [20], 18.5 µM (inactive).

For `COc1ccc2cc(CNCCCCCCCCCCCCNCc3ccc4cc(OC)ccc4c3)ccc2c1`, the GI50 is 18.5 µM (inactive) in assay [1]; 23.5 µM (inactive) in assay [11]; 1.79 µM (inactive) in assay [3]; 18.9 µM (inactive) in assay [4]; 28.4 µM (inactive) in assay [5]; 15.8 µM (inactive) in assay [12]. The GI50 is 22.5 µM (inactive) in [6]; 21.4 µM (inactive) in assay [13]; 17.1 µM (inactive) in assay [14]; 16.5 µM (inactive) in assay [7]; 19.5 µM (inactive) in assay [15]; 13.9 µM (inactive) in [8]. In addition, the GI50 in assay [9] is 18 µM (inactive); in [16], 25.6 µM (inactive); in assay [17] it was 18.9 µM (inactive); in assay [10], 20.9 µM (inactive); in [18], 15.9 µM (inactive); in assay [19], 28.3 µM (inactive). Moreover, the GI50 in [20] is 30 µM (inactive).

`N#C/C(=C\c1ccc(C(O)P(=O)(O)O)cc1)C(N)=O` (stereo not drawn): the GI50 in [1] was > 100 µM (inactive); in assay [2], > 100 µM (inactive); in assay [4], > 100 µM (inactive); in [6], > 100 µM (inactive); in [7], 29.8 µM (inactive); in assay [9] it was > 100 µM (inactive).

As for `CCCCCNC(=O)c1c(O)[nH]c(=S)[nH]c1=O`, the GI50 in assay [1], in assay [2], in assay [3], in assay [4], in assay [5] and in assay [6] was > 100 µM (inactive) throughout. Besides, the GI50 in assay [7] was > 100 µM (inactive); in [8], > 100 µM (inactive); in assay [9] it was 96.8 µM (inactive); in assay [10] it was > 100 µM (inactive).

`Cc1c(/C=N/NC(=O)c2ccccc2O)c(=O)n(-c2ccccc2)n1C`: the GI50 in assay [1] was > 100 µM (inactive); in [2], > 100 µM (inactive); in assay [3] it was 45.8 µM (inactive); in assay [4], > 100 µM (inactive); in assay [6] it was > 100 µM (inactive); in [7], > 100 µM (inactive). The GI50 in [8] is > 100 µM (inactive).

As for `CN1C(=O)C2C=C3CCCCC3=CC2N(C)C1=O` (stereo not drawn), the GI50 in assay [1], in assay [11], in assay [3], in assay [4], in assay [5] and in assay [12] was > 100 µM (inactive) throughout. For the same compound, the GI50 in [6], in assay [13], in [14], in assay [15], in assay [8] and in assay [9] was > 100 µM (inactive) throughout. Further, the GI50 in assay [16], in assay [17], in assay [10], in assay [18], in assay [19] and in [20] was > 100 µM (inactive) throughout.

Take `Cc1ccc(S(=O)(=O)C2=Cc3ccc(C(F)(F)F)cc3C2(O)c2cccc(C(F)(F)F)c2)cc1` (stereo not drawn): the GI50 in [1] was 2.15 µM (inactive); in [11], 2.08 µM (inactive); in assay [3] it was 2.43 µM (inactive); in [4], 1.66 µM (inactive); in assay [5] it was 2.08 µM (inactive); in [12], 3.1 µM (inactive). The GI50 is 1.82 µM (inactive) in [6]; 2.38 µM (inactive) in [13]; 2.3 µM (inactive) in assay [14]; 1.93 µM (inactive) in assay [7]; 2.71 µM (inactive) in [15]; 2.93 µM (inactive) in assay [8]. For the same compound, the GI50 in [9] was 2 µM (inactive); in [16] it was 2.05 µM (inactive); in assay [17] it was 2.06 µM (inactive); in assay [10], 4.05 µM (inactive); in [18] it was 3.13 µM (inactive); in assay [19] it was 2.79 µM (inactive). Besides, the GI50 in [20] was 3.25 µM (inactive).

With `O=C(CSc1nnc(-c2ccc(/N=C\c3ccc(Cl)cc3)cc2)o1)Nc1ccccc1`, the GI50 is > 100 µM (inactive) in assay [1]; 50.6 µM (inactive) in assay [2]; 33.1 µM (inactive) in assay [3]; 16.9 µM (inactive) in [4]; > 100 µM (inactive) in [6]; 21.5 µM (inactive) in assay [7]. For the same compound, the GI50 in assay [8] is 94.8 µM (inactive).

For the compound `COC(=O)[C@@H](NC1(c2ccccc2)c2ccccc2-c2ccccc21)[C@@H](C(=O)OC)N(NC(=O)OCc1ccccc1)C(=O)OCc1ccccc1.COC(=O)[C@@H](NC1(c2ccccc2)c2ccccc2-c2ccccc21)[C@H](C(=O)OC)N(NC(=O)OCc1ccccc1)C(=O)OCc1ccccc1`, the GI50 in assay [11] is > 100 µM (inactive); in assay [3], > 100 µM (inactive); in assay [4] it was 29.2 µM (inactive); in [5], > 100 µM (inactive); in assay [12], > 100 µM (inactive); in [6], > 100 µM (inactive). Besides, the GI50 in assay [13], in assay [14], in assay [7], in [15], in assay [9] and in [16] was > 100 µM (inactive) each time. Further, the GI50 in [17], in [10], in assay [18], in [19] and in assay [20] was > 100 µM (inactive) throughout.

For the compound `COC(=O)C1=COC2OC3CC1C2C(C)O3` (stereo not drawn), the GI50 in [1], in assay [11], in [3], in assay [4], in [5] and in assay [12] was > 100 µM (inactive) in each case. Besides, the GI50 in assay [6], in assay [13], in assay [14], in assay [7], in assay [15] and in [9] was > 100 µM (inactive) throughout. The GI50 in [16], in assay [17], in assay [10], in [18], in assay [19] and in assay [20] was > 100 µM (inactive) each time.

Consider `COc1cc2c3c(c4ccc(O)cc4c2cc1OC)[C@@H](O)[C@@H]1CCCN1C3`, for which the GI50 in assay [1], in assay [11], in [3], in [4], in assay [5] and in assay [12] was < 0.001 µM (active) throughout. Moreover, the GI50 in [6] is < 0.001 µM (active); in assay [13], < 0.001 µM (active); in [14], < 0.001 µM (active); in [7] it was < 0.001 µM (active); in assay [15], 0.00166 µM (active); in assay [8] it was < 0.001 µM (active). The GI50 was < 0.001 µM (active) in assay [9]; < 0.001 µM (active) in assay [16]; 0.00168 µM (active) in [17]; < 0.001 µM (active) in assay [10]; < 0.001 µM (active) in assay [18]; 0.0019 µM (active) in [19]. Also, the GI50 in assay [20] was < 0.001 µM (active).
